# Measured values reported in publication PMC11779924 (Nature Communications, 2025).
# Legend:
# [1] = system: hypertensive rats with blood clot defect (BCD); assay type: in vivo, rat; conditions: micro-CT
# healthy SD rats = conditions: subcutaneous implantation, n = 6
# BCD rats = conditions: rat, in vivo
# [2] = system: beagles with blood clot defect (heparin); design: species or system beagle; conditions: dog, in vivo
# beagles = assay: Beagle BCD model: overall toxicity incl. cardiotoxicity and organ H&E
# [3] = system: hypertensive rats with blood clot defect (BCD); assay: Rat BCD model: immunofluorescent staining of CD73&Fak, Runx2, Alp; assay type: in vivo; conditions: BCgel vs Ctrl, n = 6
# [4] = system: beagles with blood clot defect (heparin); assay: Beagle tooth extraction BCD model: coagulation time; assay type: in vivo; conditions: treated immediately after tooth extraction, n = 7
# [5] = system: hypertensive rats with blood clot defect (BCD); assay: Rat incisor extraction BCD model: coagulation time; assay type: in vivo; conditions: treated immediately after tooth extraction, n = 12
substance,measurement,setting,value
(RADA)4GSVLGYIQIR [BCgel],osteogenic effects of mechanically unloaded BCgel,"[1]; 0.5% BCgel vs gelform (Ctrl), n = 3",negligible osteogenic effects
same,decrease in Tb.Sp compared to the Ctrl group,"[1]; 1 week post-treatment, n = 6",47%
same,increase in BMD compared to the Ctrl group,"[1]; 1 week post-treatment, n = 6",73%
same,increase in BV/TV compared to the Ctrl group,"[1]; 1 week post-treatment, n = 6",84%
same,hematological parameters,healthy SD rats,nor did they have any impact on hematological parameters
same,hepatic or renal function,healthy SD rats,neither BCgel nor gelform induced any hepatic or renal abnormalities
same,increase in bone mineral density (BMD),BCD rats,39%
same,reduction in trabecular separation (Tb.Sp),BCD rats,50%
same,elevation in Tb.N compared to the Ctrl group,[2],56%
same,enhancement in BMD compared to the Ctrl group,[2],105%
same,increase in BV/TV compared to the Ctrl group,[2],143%
same,reduction in Tb.Sp compared to the Ctrl group,[2],60%
same,"immunotoxicity, hematotoxicity, hepatotoxicity, nephrotoxicity, cardiotoxicity","beagles; BCgel for two months, n = 4",did not result in any observed immunotoxicity
same,"physiological toxicity (hematotoxicity, hepatotoxicity, nephrotoxicity, cardiotoxicity)","beagles; five months after tooth extraction, n = 3",no signs of physiological toxicity
same,increase in CD73+&Fak+ double positive cells,[3]; one-month post-treatment,15 fold
same,increase in CD73+&Fak+ double positive cells,[3]; one-week post-treatment,31 fold
same,reduction in coagulation time vs gelform (Ctrl),[4],69%
same,reduction in coagulation time compared to gelform,[5],55%
